Publication PMC6965684, “Characterization of binding, functional activity, and contractile responses of the selective 5‐HT1F receptor agonist lasmiditan” (British Journal of Pharmacology, 2019)
Structures can show the parent of a compound that is named as a salt. Where two headings read alike, the source gives them in different places.

Tests used:
[1] = biological target: T1, 5-ht1E receptor (Homo sapiens, UniProt P28566); test: biochemical; type: CHO-K1 membranes; set-up: radioligand competition binding on cell membranes, filtration and TopCount scintillation counting; settings: radioligand displacement; read-out: 5‐ht1E / pIC50 (converted)
T1 construct: gene HTR1E; full-length human recombinant receptor in CHO-K1 cells (Ogeda); crude membranes
Experimental: (§1) Competition binding was performed in duplicate in the wells of a 96‐well plate containing binding buffer (optimized for each receptor), cell membrane extracts (approximately 20,000 cells distributed in the 96‐well plate), radiotracer, and test agonist. Non‐specific binding was determined by co‐incubation with 200‐fold excess of competitor. Cells were incubated and exposed to varying concentrations (1 pM to 10 μM) of a range of displacer agonists (see below). The samples were incubated in a final volume of 0.1 ml and then filtered over Unifilter plates (Perkin Elmer, Massachusetts, USA) pretreated for 2 hr to limit tracer non‐specific binding. Filters were washed five times with 0.5 ml of ice‐cold washing buffer (tris 50 mM pH 7.4) and 50 μl of Microscint 20 (Perkin Elmer) were added to each filter. The plates were incubated 15 min at room temperature on an orbital shaker and then counted with a TopCount™ (Perkin Elmer) for 1 min per well. […] Additionally, the reference values obtained were compared to historical values obtained from the same receptor and used to validate the experimental session. […] For the new assays developed in this study (i.e., 5‐ht1E receptor), the two independent pIC50 determined must be concordant with a 1 log unit interval for the assays to be validated.

[2] = biological target: T1, 5-ht1E receptor; test: cell-based; set-up: species or system CHO-K1; cAMP HTRF agonist assay, Gi coupled receptors, inhibition of stimulated cAMP; settings: cAMP
Experimental: (§2) Concentration–response curves were performed in parallel with the agonists. […] After addition of the lysis buffer and 1‐hr incubation, cAMP concentrations were estimated according to the manufacturer specification with the HTRF kit (Cisbio International, Codelet, France). In brief, increasing concentrations of agonists were added to stably transfected cells in buffer in an Optiplate (PerkinElmer Life Sciences, Massachusetts, USA). The plates were incubated, and cells were then lysed by the addition of HTRF reagents (cAMP‐Cryptate and anti‐cAMP‐d2 reagents) and diluted in lysis buffer, followed by incubation at room temperature. […] Additionally, the reference values obtained were compared to historical values obtained from the same receptor and used to validate the experimental session. […] For the new assays developed in this study (i.e., 5‐ht1E receptor), the two independent pIC50 determined must be concordant with a 1 log unit interval for the assays to be validated.

[3] = biological target: T2, 5-HT1D receptor (Homo sapiens, UniProt P28221); test: radioligand competition, CHO-K1 membranes; type: binding; settings: read-out: 5-HT1D / pKi (converted)
T2 construct: gene HTR1D; full-length human recombinant receptor in CHO-K1 cells (Ogeda); crude membranes
Text: radioligand competition, CHO-K1 membranes on 5-HT1D receptor

[4] = biological target: T3, 5-HT1B receptor (Homo sapiens, UniProt P28222); test: radioligand competition, CHO-K1 membranes; type: binding; settings: read-out: 5-HT1B / pKi (converted)
T3 construct: gene HTR1B; full-length human recombinant receptor in CHO-K1 cells (Ogeda); crude membranes
Text: radioligand competition, CHO-K1 membranes on 5-HT1B receptor

[5] = biological target: T4, 5-HT1F receptor (Homo sapiens, UniProt P30939); test: radioligand competition, CHO-K1 membranes; type: binding; settings: read-out: 5-HT1F / pKi (converted)
T4 construct: gene HTR1F; full-length human recombinant receptor in CHO-K1 cells (Ogeda)
T4 sequence (P30939 1-366): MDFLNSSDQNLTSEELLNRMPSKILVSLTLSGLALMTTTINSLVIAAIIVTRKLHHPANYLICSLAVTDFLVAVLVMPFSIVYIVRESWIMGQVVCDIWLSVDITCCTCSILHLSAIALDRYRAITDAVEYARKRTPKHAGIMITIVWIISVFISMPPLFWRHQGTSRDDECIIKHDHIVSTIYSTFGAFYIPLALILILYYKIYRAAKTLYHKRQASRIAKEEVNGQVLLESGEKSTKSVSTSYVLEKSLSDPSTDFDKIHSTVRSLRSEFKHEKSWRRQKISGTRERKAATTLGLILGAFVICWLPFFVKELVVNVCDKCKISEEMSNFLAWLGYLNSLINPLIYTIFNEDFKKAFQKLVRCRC

[6] = biological target: T5, 5-HT1A receptor (Homo sapiens, UniProt P08908); test: radioligand competition, CHO-K1 membranes; type: binding; settings: read-out: 5-HT1A / pKi (converted)
T5 construct: gene HTR1A; full-length human recombinant receptor in CHO-K1 cells (Ogeda); crude membranes
T5 sequence (P08908 1-422): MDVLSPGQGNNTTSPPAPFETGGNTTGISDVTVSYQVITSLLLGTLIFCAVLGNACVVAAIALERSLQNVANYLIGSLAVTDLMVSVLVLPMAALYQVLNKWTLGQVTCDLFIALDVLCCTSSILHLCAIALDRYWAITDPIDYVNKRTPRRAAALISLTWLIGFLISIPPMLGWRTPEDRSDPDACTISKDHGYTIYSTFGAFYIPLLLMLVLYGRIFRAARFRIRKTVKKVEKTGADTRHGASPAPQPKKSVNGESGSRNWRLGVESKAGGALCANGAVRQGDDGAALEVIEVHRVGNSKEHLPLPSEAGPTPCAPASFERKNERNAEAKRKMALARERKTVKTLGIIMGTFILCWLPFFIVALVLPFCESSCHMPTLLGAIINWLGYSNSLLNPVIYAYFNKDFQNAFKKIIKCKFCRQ
Text: radioligand competition, CHO-K1 membranes on 5-HT1A receptor

[7] = biological target: T3, 5-HT1B receptor; test: biochemical; type: CHO-K1 membranes; set-up: radioligand competition binding on cell membranes, filtration and TopCount scintillation counting; settings: radioligand displacement; read-out: 5‐HT1B / pIC50 (converted)
Experimental: as §1

[8] = biological target: T2, 5-HT1D receptor; test: biochemical; type: CHO-K1 membranes; set-up: radioligand competition binding on cell membranes, filtration and TopCount scintillation counting; settings: radioligand displacement; read-out: 5‐HT1D / pIC50 (converted)
Experimental: as §1

[9] = biological target: T6, 5-HT2B receptor (Homo sapiens, UniProt P41595); test: biochemical; type: CHO-K1 membranes; set-up: radioligand competition binding on cell membranes, filtration and TopCount scintillation counting; settings: radioligand displacement; read-out: 5‐HT2B / pIC50 (converted)
T6 construct: gene HTR2B; full-length human recombinant receptor in CHO-K1 cells (Ogeda); crude membranes
Experimental: as §1

[10] = biological target: T3, 5-HT1B receptor; test: cell-based; set-up: species or system CHO-K1; cAMP HTRF agonist assay, Gi coupled receptors, inhibition of stimulated cAMP
Experimental: as §2

[11] = cAMP, read-out: 5‐HT1B / cAMP (converted)

T1 sequence (P28566 whole entry): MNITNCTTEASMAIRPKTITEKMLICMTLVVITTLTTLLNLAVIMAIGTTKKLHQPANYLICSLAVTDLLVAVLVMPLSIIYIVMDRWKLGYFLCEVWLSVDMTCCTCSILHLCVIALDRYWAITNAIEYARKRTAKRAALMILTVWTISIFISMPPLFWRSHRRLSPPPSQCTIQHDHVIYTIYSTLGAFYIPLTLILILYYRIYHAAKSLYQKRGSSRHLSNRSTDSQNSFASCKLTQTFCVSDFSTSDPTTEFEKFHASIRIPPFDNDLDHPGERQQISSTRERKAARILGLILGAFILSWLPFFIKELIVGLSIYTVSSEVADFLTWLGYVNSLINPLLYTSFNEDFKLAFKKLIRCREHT
T6 sequence (P41595 whole entry): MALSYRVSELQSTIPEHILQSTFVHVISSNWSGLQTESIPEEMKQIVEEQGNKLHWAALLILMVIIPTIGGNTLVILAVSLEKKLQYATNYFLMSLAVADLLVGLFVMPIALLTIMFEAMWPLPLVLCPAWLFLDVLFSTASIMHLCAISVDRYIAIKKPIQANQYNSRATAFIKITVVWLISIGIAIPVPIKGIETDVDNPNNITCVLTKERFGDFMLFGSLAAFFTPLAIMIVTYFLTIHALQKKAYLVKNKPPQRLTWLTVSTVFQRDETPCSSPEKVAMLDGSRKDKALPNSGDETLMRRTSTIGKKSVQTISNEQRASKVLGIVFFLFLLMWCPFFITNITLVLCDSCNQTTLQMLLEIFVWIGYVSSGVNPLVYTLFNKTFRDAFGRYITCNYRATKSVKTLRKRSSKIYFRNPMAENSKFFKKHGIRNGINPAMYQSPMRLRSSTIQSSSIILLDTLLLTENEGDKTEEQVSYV
T3 sequence (P28222 whole entry): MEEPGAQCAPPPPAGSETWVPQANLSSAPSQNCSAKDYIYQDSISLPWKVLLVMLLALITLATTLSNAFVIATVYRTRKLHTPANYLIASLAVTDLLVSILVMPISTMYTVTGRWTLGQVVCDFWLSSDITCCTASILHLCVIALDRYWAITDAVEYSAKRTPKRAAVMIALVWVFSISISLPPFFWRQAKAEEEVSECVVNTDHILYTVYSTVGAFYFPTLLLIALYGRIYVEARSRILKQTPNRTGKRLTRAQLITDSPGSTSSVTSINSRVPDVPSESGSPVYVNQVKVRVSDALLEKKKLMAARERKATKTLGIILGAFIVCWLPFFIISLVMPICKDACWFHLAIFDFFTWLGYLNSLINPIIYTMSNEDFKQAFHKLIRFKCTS
T2 sequence (P28221 whole entry): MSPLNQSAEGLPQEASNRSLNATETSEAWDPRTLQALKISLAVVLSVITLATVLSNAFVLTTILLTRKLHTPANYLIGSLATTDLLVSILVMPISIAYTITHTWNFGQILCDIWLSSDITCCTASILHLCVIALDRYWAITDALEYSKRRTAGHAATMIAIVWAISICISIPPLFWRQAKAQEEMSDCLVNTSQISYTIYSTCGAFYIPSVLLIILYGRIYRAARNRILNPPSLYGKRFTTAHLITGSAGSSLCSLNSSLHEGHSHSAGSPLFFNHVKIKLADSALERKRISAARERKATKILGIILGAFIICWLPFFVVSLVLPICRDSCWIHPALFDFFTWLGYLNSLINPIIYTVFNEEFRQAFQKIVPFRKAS

Structure (SMILES)	IC50 [1] [µM]	EC50 [2] [µM]	Ki [3] [nM]	Ki [4] [nM]	Ki [5] [nM]	Ki [6] [nM]	IC50 [7] [nM]	IC50 [8] [nM]	IC50 [9] [nM]	EC50 [10, 11] [nM]	EC50 [10] [nM]
CNC1CCc2[nH]c3ccc(C(N)=O)cc3c2C1 (racemic) [Frovatriptan racemate]	> 10	9.12	–	–	–	–	–	–	–	–	–
CNS(=O)(=O)Cc1ccc2[nH]cc(CCCN3CCN(c4ncncc4OC)CC3)c2c1 [Avitriptan fumarate]	7.08	3.02	0.776	1.58	77.6	19.5	4.79	3.8	1860	2.69	–
N#Cc1ccc(N2CCN(C(=O)COc3ccc4[nH]cc(CCN)c4c3)CC2)cc1 [Donitriptan hydrochloride]	3.39	> 10	0.138	0.17	–	11.7	0.513	0.661	1320	–	0.11
CN1CCC[C@@H]1Cc1c[nH]c2ccc(CCS(=O)(=O)c3ccccc3)cc12 [Eletriptan hydrobromide]	0.123	0.0295	0.102	0.525	17	1.95	1.58	0.49	724	10	–
CN(C)[C@@H]1CCc2[nH]c3ccc(NC(=O)c4ccc(F)cc4)cc3c2C1 [LY344864 hydrochloride]	–	–	–	–	–	–	–	–	4900	–	–
CNS(=O)(=O)CCc1ccc2[nH]cc(C3CCN(C)CC3)c2c1 [Naratriptan hydrochloride]	–	0.0178	0.501	0.603	1.78	15.1	–	2.4	> 10000	8.91	–
